Measurements taken from patent US9447408B2, “Method of efficiently establishing induced pluripotent stem cells” (Kyoto University, priority 2010, dated 2016).

Legend:
[1] = system: Human dermal fibroblasts (HDF 1616 line); assay: Human iPS cell colony formation, 4 genes introduced, SB202190 added Day 0 or day 5; format: cell-based
Procedure: Human dermal fibroblasts (HDF 1616 line) were treated using a lentivirus (pLenti6/UbC-Slc7a1) according to the method described by Takahashi, K. et al. in Cell, 131: 861-872 (2007), to express the mouse ecotropic virus receptor Slc7a1 gene. These cells were seeded to a 6-well culture plate (Falcon), previously coated with 0.1% gelatin (Sigma), at 1.0×10^5 cells per well. The following day, the four human genes were introduced using a retrovirus according to the method described by Takahashi, K. et al. in Cell, 131: 861-872 (2007). On day 4 after the infection, 2.0×10^5 cells were seeded to a 100 mm dish, containing previously seeded feeder cells. To determine the effect of a p38 inhibitor, SB202190 was added simultaneously with the infection (Day 0), or on day 5 after the infection, and the efficiency of iPS cell establishment was compared. On day 16 after the infection, iPS cell colonies were counted. The results are shown in the upper panel in FIG. 3. In the context of introduction of the four genes (Oct3/4, Sox2, Klf4, C-Myc), the number of human iPS cell colonies increased with the addition of SB202190 in the initial stage after the infection, compared with the addition of DMSO for control and the addition of SB202190 on day 5 after the infection. The four genes were introduced using a retrovirus in the same manner, but at a different cell density (3×10^4 cells/10 cm dish), with simultaneous addition of SB202190 (Day 0). SB202190 was added also on day 5 after the infection, and the efficiency of iPS cell establishment was compared. On day 16 after the infection, colony sizes were measured. The results are shown in the lower panel in FIG. 3. Even when the cell density was changed, the number of iPS cell colonies increased with the addition of SB202190 along with the four factors (Oct3/4, Sox2, Klf4, C-Myc), compared with the addition of DMSO.

[2] = system: Mouse embryonic fibroblasts (MEFs); assay: iPS cell establishment from MEFs, 3 genes (Oct3/4, Sox2, Klf4) introduced, with p38 inhibitors; format: cell-based; conditions: 10 μM inhibitor, 2×10^4 cells/10 cm dish, FIG. 2
Procedure: Three genes were introduced using a retrovirus by the same experimental procedures as the above. The cells were cultured at a cell density of 2×10^4 cells/10 cm dish, with the addition of 10 μM of SB202190, SB239063, or SB203580 (Calbiochem Company) to the medium per the schedule shown below, and the establishment efficiency was compared. • 1. Oct3/4, Sox2, Klf4, each derived from mouse, saline • 2. Oct3/4, Sox2, Klf4, each derived from mouse, DMSO • 3. Oct3/4, Sox2, Klf4, each derived from mouse, SB202190 10 μM (Day 1-4) • 4. Oct3/4, Sox2, Klf4, each derived from mouse, SB202190 10 μM (Day 1-8) • 5. Oct3/4, Sox2, Klf4, each derived from mouse, SB202190 10 μM (Day 9-16) • 6. Oct3/4, Sox2, Klf4, each derived from mouse, SB202190 10 μM (Day 1-16) • 7. Oct3/4, Sox2, Klf4, each derived from mouse, SB239063 10 μM (Day 1-4) • 8. Oct3/4, Sox2, Klf4, each derived from mouse, SB239063 10 μM (Day 1-8) • 9. Oct3/4, Sox2, Klf4, each derived from mouse, SB239063 10 μM (Day 9-16) • 10. Oct3/4, Sox2, Klf4, each derived from mouse, SB239063 10 μM (Day 1-16) • 11. Oct3/4, Sox2, Klf4, each derived from mouse, SB203580 10 μM (Day 1-4) • 12. Oct3/4, Sox2, Klf4, each derived from mouse, SB203580 10 μM (Day 1-8) • 13. Oct3/4, Sox2, Klf4, each derived from mouse, SB203580 10 μM (Day 9-16) • 14. Oct3/4, Sox2, Klf4, each derived from mouse, SB203580 10 μM (Day 1-16),

Compound	number of human iPS cell colonies on day 16 after the infection ([1]; 2.0×10^5 cells/100 mm dish, added in the initial stage (Day 0), compared with DMSO and addition on day 5)	number of iPS cell colonies on day 16 compared with DMSO ([1]; 3×10^4 cells/10 cm dish)	efficiency of iPS cell establishment, added on day 5 versus simultaneously with the infection ([1]; lower cell density 3×10^4 cells/10 cm dish)	number of Nanog-GFP-positive colonies compared with physiological saline or DMSO [2]	total number of colonies compared with physiological saline or DMSO [2]
Oc1ccc(-c2nc(-c3ccc(F)cc3)c(-c3ccncc3)[nH]2)cc1 [SB202190, 4-(4-fluorophenyl)-2-(4-hydroxyphenyl)-5-(4-pyridyl)imidazole]	increased	increased	higher		
COc1nccc(-c2c(-c3ccc(F)cc3)ncn2[C@H]2CC[C@H](O)CC2)n1 [SB239063, trans-1-(4-Hydroxycyclohexyl)-4-(4-fluorophenyl)-5-(2-methoxypyrimidin-4-yl)imidazole]				increased	increased
